Marks after values point to notes of the source that are not given here.
Columns and labels:
[1] = system: LPS-treated mice; assay: Nigral TH-IR in LPS-treated mice; type: in vivo; details: 24 mg/kg i.p.
From the text: FIGS. 8A-8B. […] Magnification=40×.
(§1) Control animals received striatal injection with PBS.

[2] = system: MA-treated mice; assay: Striatal dopamine and metabolites in MA-treated mice; type: in vivo; details: for Concentration DA in the striatum: 3 days after final MA
From the text: Mice were sacrificed at 3 days after final MA injection.

[3] = system: MPTP-treated mice; assay: Hypokinesia (reduction in locomotor activity) induced by MPTP; type: in vivo; details: 12 or 24 mg/kg i.p. 30 min before MPTP (20 mg/kg/day x 7), last three days
[4] = system: cocaine-treated mice; assay: Cocaine-induced hyperlocomotion; type: in vivo
Experimental: FIGS. 34A-34B show effect of morphinans on the cocaine-induced hyperactivity in the mice. Morphinans (15 and 30 mg/kg, i.p.) were administered 30 minutes prior to cocaine (5 and 20 mg/kg, i.p.). Central activity means relatively non-specific locomotor activity in the center of the box. Marginal activity means circling behaviors. All treatments were performed for 7 days.
FIGS. 35A-35D show effect of dimemorfan (DF) on cocaine-induced hyperactivity in the mice. DF (20 mg/kg, i.p.) was administered 30 minutes prior to cocaine (5 and 20 mg/kg, i.p.). All treatments were performed for 7 days.

[5] = target: σ1 receptors (Homo sapiens, UniProt Q99720); details: cited from earlier work
[6] = system: MPTP-treated mice; assay: Striatal dopamine and metabolites (HPLC-EC) in MPTP-treated mice; details: for Concentration DA in the striatum: mean ± S.E.M., 8 animals
Experimental: (§2) Each morphinan was administered 30 min prior to every injection of MPTP for last three days (from day 4th to day 7th). Animals were sacrificed 24 h after the last MPTP treatment.
Brains were rapidly removed and cut into 1 mm coronal sections on ice. The striatum was punched using a fine pasteur pipette (3, 21, 22), and stored at −70° C. DA and its metabolites, 3,4-dihydroxyphenylacetic acid (DOPAC) and homovanilic acid (HVA) were measured by HPLC-eletrochemical detection (3, 21, 22). Briefly, the striatum was homogenized in 0.2 M perchloric acid containing 3,4-dihydroxybenzylamine as an internal standard (10 mg wet weight of tissue per ml). The homogenate was centrifuged and a 20-μl aliquot of the supernatant was injected into the HPLC equipped with an ODS-C18 column. The mobile phase was comprised of 26 ml of acetonitrile, 21 ml of tetrahydrofuran and 960 ml of 0.15 M monochloroacetic acid (pH 3.0) containing 50 mg/l of EDTA and 200 mg/l of sodium octyl sulfate. The amount of DA, DOPAC and HVA were determined by comparison of peak height ratio of tissue sample with standards, and were expressed in nanograms per 100 mg of wet weight of tissue.
Each morphinan was administered 30 min before every injection of MPTP for last three days. Animals were sacrificed at 24 h after the last MPTP injection.

[7] = system: kainate or maximal electric shock; details: kainate (24) or maximal electric shock (27); cited from earlier work
[8] = system: MA-treated mice; assay: MA-induced behavioural sensitization; details: morphinan 20 mg/kg i.p., last 3 days of wash-out (Ex. 3.12)
Experimental: Morphinans (20 mg/kg, i.p.) were administered last 3 days of wash-out period.

[9] = system: NMDA receptor associated PCP sites; details: cited from earlier work
[10] = system: MA-treated mice; assay: Nigral TH-IR in MA-treated mice; details: 24 mg/kg i.p.
[11] = system: MA-treated mice; assay: Methamphetamine (MA)-induced hyperthermia; type: in vivo; details: 24 mg/kg; MA 7.5 mg/kg i.p. x 4 at 2-h intervals
Experimental: Rectal temperature was recorded at 40 min after each MA treatment. […] Mice were sacrificed at 3 days after final MA injection.
FIGS. 10A-10B show effect of morphinans on the methamphetamine (MA)-induced hyperthermia. Mice received i.p. injections of MA (four injections of 7.5 mg/kg each) at 2-h intervals under the ambient temperature of 22.0±0.5° C. Temperatures were recorded at 40 min after each MA treatment (Arrow=MA injection).

[12] = system: MA-treated mice; assay: MA-induced FRA-IR in the striatum; details: morphinan 20 mg/kg i.p.; MA 1 mg/kg i.p./day x 7
Experimental: Therefore, brains were removed and used for immunocytochemical analysis at 18 h after the final cocaine/MA treatment. The coronal sections containing striatum were processed for FRA immunocytochemistry. […] The FRA antibody was used at 1:2,000 as the optimal dilution. The FRA-IR in the striatum was calculated using image analysis systems with a polaroid digital microscopic camera (Optimas version 6.2).

[13] = system: MA-treated mice; assay: Hypokinesia induced by MA; type: in vivo; details: 12 and 24 mg/kg; 3 days after final MA
[14] = system: C57 BL/6 mice; assay: Conditioned place preference (psychological dependence) following repeated administration of morphinans or PCP; type: in vivo; details: 20 or 40 mg/kg i.p. (PCP 2.5 or 5 mg/kg); vs saline
Experimental: On day 14, the guillotine doors were raised. […] Data were analyzed between 0900 and 1700 hr.

[15] = system: cocaine-treated mice; assay: Cocaine-induced Fos-related antigen-immunoreactivity (FRA-IR) in the striatum; details: cocaine 5 mg/kg; morphinan 20 mg/kg i.p.
[16] = system: MPTP-treated mice; assay: Nigral tyrosine hydroxylase-like immunoreactivity in MPTP-treated mice; details: 24 mg/kg i.p.
Experimental: as §2

[17] = system: MA-treated mice; assay: MA-induced hyperlocomotion; type: in vivo; details: morphinan 20 mg/kg i.p. 30 min before MA 1 mg/kg i.p./day x 7
Experimental: FIGS. 39A-39D show effect of morphinans on the MA-induced hyperactivity in the mice. Each morphinan (20 mg/kg, i.p.) was administered 30 minutes prior to MA (1 mg/kg, i.p.). All treatments were performed for 7 days.

[18] = system: C57 BL/6 mice; assay: Locomotor activity and locomotor pattern following repeated administration of morphinans or PCP; type: in vivo
[19] = system: LPS-treated mice; assay: Striatal dopamine and metabolites in LPS-treated mice; type: in vivo; details: for Concentration DA in the striatum: 3 weeks after LPS
From the text: as §1
Mice were sacrificed at 3 weeks after LPS treatment.

[20] = system: LPS-treated mice; assay: Hypokinesia induced by intrastriatal LPS; details: 12 or 24 mg/kg, twice before bilateral intrastriatal LPS
Experimental: Male mice were anesthetized with chloral hydrate (200 mg/kg, i.p.) and positioned in a small-animal stereotaxic apparatus. […] LPS (2 μg in a volume of 2 μl of PBS) was injected into both sides of the striatum over a period of 2 min, and the injection needle was kept in place for 2 min after the injection. Control animals received striatal injection with PBS.
Ten min after the last treatment with each drug, locomotor activity was measured for 30 min. After measuring the locomotor activity (i.e. 40 min after the last drug injection), the ‘absolute turn angular’ was analyzed in a 3-min monitoring period using an automated video-tracking system (Noldus Information Technology, Wagenin, The Netherlands) to examine locomotor patterns. […] Eight test boxes (40×40×30 cm high) were operated simultaneously by an IBM computer. Animals were studied individually during locomotion in each test box, where they were adapted for 10 min before starting the experiment. […] The distance traveled in cm by the animals in horizontal locomotor activity was analyzed (13, 25, 27). Data were collected and analyzed between 0900 and 1700 hr.

[21] = system: LPS-treated mice; assay: LPS model, HM versus L-dopa/carbidopa: nigral TH-IR; details: mouse, in vivo
From the text: FIG. 27 show effects of carbidopa, L-dopa, carbidopa+L-dopa and HM on the nigral tyrosine hydroxylase-like immunoreactivity (TH-IR) of the mice treated with LPS.

[22] = system: LPS-treated mice; assay: LPS model, HM versus L-dopa/carbidopa: microglia F4/80-like immunoreactivity; type: in vivo; details: substantia nigra
[23] = system: MPTP-treated mice; assay: MPTP model, HM versus L-dopa/carbidopa: locomotor activity; type: in vivo; details: HM 24 mg/kg i.p., L-dopa 200 mg/kg p.o., carbidopa 20 mg/kg p.o., 2 weeks before MPTP
Experimental: FIGS. 20A-20B show effects of carbidopa, L-dopa, carbidopa+L-dopa and HM on the changes in locomotor activity (A) and locomotor pattern (B) induced by MPTP in mice.
A prescription drug for treating Parkinsonian patients is L-dopa or carbidopa plus L-dopa. Thus, the neuroprotective effects of HM was compared with L-dopa, carbidopa, or carbidopa plus L-dopa. […] Locomotor activity was examined for 60 min after final treatment of MPTP. Mice were sacrificed at 24 h after final MPTP administration. HM (24 mg/kg, i.p.), L-dopa (200 mg/kg, p.o.) with or without carbidopa (20 mg/kg, p.o.) was administered for 2 weeks before first MPTP challenge.

[24] = system: MA-treated mice; assay: MA model, HM versus L-dopa/carbidopa: hyperthermia; type: in vivo; details: MA 7.5 mg/kg i.p. x 4
Experimental: FIGS. 31A-31B show effect of drugs on the MA-induced hyperthermia. Mice received MA injections as 2 hrs' time interval under the ambient temperature of 22.0±0.5° C.
Experimental paradigm for MA with or without compounds is in FIG. 30. Treatment with MA (7.5 mg/kg, i.p.×four times as two hour time interval) produces hyperthermia (P<0.01).

[25] = system: LPS-treated mice; assay: LPS model, HM versus L-dopa/carbidopa: mortality; type: in vivo; details: intrastriatal LPS 2 μg x 4/head; 2 weeks
Experimental: Mortality was observed by 2 weeks after LPS injection. *P<0.01 vs. Saline+LPS (x^2-test).
The neuroprotective effect of HM was compared with L-dopa, carbidopa, or carbidopa plus L-dopa in response to dopaminergic damage induced by LPS. Intrastriatal injection of LPS (2 μg×4/head) produced high mortality (ten animals died out of twelve animals in the 2 weeks after LPS administration).

Chain of σ1 receptors (Q99720 whole entry): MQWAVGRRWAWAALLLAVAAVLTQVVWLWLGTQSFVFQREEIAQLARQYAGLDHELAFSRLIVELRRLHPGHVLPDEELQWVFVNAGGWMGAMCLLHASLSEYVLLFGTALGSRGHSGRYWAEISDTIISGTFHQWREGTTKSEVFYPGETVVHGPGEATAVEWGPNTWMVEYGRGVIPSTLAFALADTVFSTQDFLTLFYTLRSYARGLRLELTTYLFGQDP

Structure (SMILES): CN1CC[C@]23CCCC[C@H]2[C@H]1Cc1ccc(OCC2CC2)cc13 [CM, 3-cyclopropylmethoxy-17-methylmorphinan]
- effect on LPS-induced reduction in nigral TH-positive cells [1]: significantly attenuated the reduction in TH-positive cells
- effect on MA-induced reductions in striatal DA, DOPAC and HVA ([2]; 24 mg/kg pretreatment): significantly protected
- Concentration DOPAC in the striatum ([2]; morphinan 12 (mg/kg) + MA): 82 ± 10 ng/100 mg wet tissue
- Concentration HVA in the striatum ([2]; morphinan 12 (mg/kg) + MA): 83 ± 9 ng/100 mg wet tissue
- Concentration DA in the striatum ([2]; morphinan 12 (mg/kg) + MA, mean ± S.E.M., 8 animals): 668 ± 81 ng/100 mg wet tissue
- Concentration DOPAC in the striatum ([2]; morphinan 24 (mg/kg) + MA): 99 ± 10^b ng/100 mg wet tissue
- Concentration HVA in the striatum ([2]; morphinan 24 (mg/kg) + MA): 94 ± 12^b ng/100 mg wet tissue
- Concentration DA in the striatum ([2]; morphinan 24 (mg/kg) + MA): 777 ± 66^c ng/100 mg wet tissue
- effect on MPTP-induced reduction in locomotor activity [3]: significantly prevented MPTP-induced reduction in locomotor activity
- effect on locomotor activity induced by low dose of cocaine ([4]; cocaine 5 mg/kg i.p. x 7 days, morphinan 15 or 30 mg/kg (DF 20 mg/kg) i.p.): consistently attenuated locomotor activity induced by a low dose of cocaine
- effect on hyperactivity induced by high dose of cocaine ([4]; cocaine 20 mg/kg i.p. x 7 days, morphinan 15 or 30 mg/kg i.p. 30 min before): not uniform
- affinity for σ1 receptors [5]: high affinity ligands
- effect on MPTP-induced reductions in striatal DA, DOPAC and HVA ([6]; 24 mg/kg pretreatment): significantly protected
- Concentration DOPAC in the striatum ([6]; morphinan 12 (mg/kg) + MPTP): 58 ± 6 ng/100 mg wet tissue
- Concentration HVA in the striatum ([6]; morphinan 12 (mg/kg) + MPTP): 68 ± 9 ng/100 mg wet tissue
- Concentration DA in the striatum ([6]; morphinan 12 (mg/kg) + MPTP): 489 ± 69 ng/100 mg wet tissue
- Concentration DOPAC in the striatum ([6]; morphinan 24 (mg/kg) + MPTP): 78 ± 10^b ng/100 mg wet tissue
- Concentration HVA in the striatum ([6]; morphinan 24 (mg/kg) + MPTP): 89 ± 7^b ng/100 mg wet tissue
- Concentration DA in the striatum ([6]; morphinan 24 (mg/kg) + MPTP): 587 ± 76^b ng/100 mg wet tissue
- anticonvulsant effect [7]: exhibited anticonvulsant effects
- effect on MA-induced behavioural sensitization [8]: significantly reduced
- affinity for NMDA receptor associated PCP sites [9]: very low affinities
- effect on MA-induced decrease in nigral TH-positive cells [10]: significantly attenuated the decrease in TH-positive cells
- effect on MA-induced hyperthermia (rectal temperature) [11]: attenuated by all morphinans used in this study
- effect on MA-induced FRA-IR in the striatum [12]: apparently attenuated
- effect on MA-induced reduction in locomotor activity [13]: significantly prevented MA-induced reduction in locomotor activity
- conditioned place preference (CPP) [14]: almost no CPP effects
- effect on cocaine-induced FRA-IR in the striatum [15]: apparently attenuated
- effect on MPTP-induced decrease in nigral TH-positive cells [16]: significantly attenuated the decrease in TH-positive cells
- effect on MA-induced hyperlocomotion [17]: consistently effective in attenuating hyperlocomotion induced by MA
- locomotor pattern (tracings) ([18]; 40 mg/kg i.p. (PCP 5 mg/kg), FIG. 3): did not produce significant marginal activity
- marginal activity (circling behaviour; absolute turn angular) ([18]; 20 or 40 mg/kg i.p./day x 7 (PCP 2.5 or 5 mg/kg), 3-min period, vs saline): did not significantly affect marginal activity
- locomotor activity (total distance moved) ([18]; 20 or 40 mg/kg i.p./day x 7 days, 30 min after final treatment, vs saline): comparable to that with saline
- effect on LPS-induced reductions in striatal DA, DOPAC and HVA ([19]; 24 mg/kg pretreatment): significantly protected
- Concentration DOPAC in the striatum ([19]; morphinan 12 (mg/kg) + LPS): 70 ± 7 ng/100 mg wet tissue
- Concentration HVA in the striatum ([19]; morphinan 12 (mg/kg) + LPS): 83 ± 6 ng/100 mg wet tissue
- Concentration DA in the striatum ([19]; morphinan 12 (mg/kg) + LPS, mean ± S.E.M., 8 animals): 482 ± 54 ng/100 mg wet tissue
- Concentration DOPAC in the striatum ([19]; morphinan 24 (mg/kg) + LPS): 86 ± 9^c ng/100 mg wet tissue
- Concentration HVA in the striatum ([19]; morphinan 24 (mg/kg) + LPS): 89 ± 7^c ng/100 mg wet tissue
- Concentration DA in the striatum ([19]; morphinan 24 (mg/kg) + LPS): 684 ± 56^c ng/100 mg wet tissue
- effect on LPS-induced decrease in locomotor activity [20]: significantly prevented LPS-induced decrease in locomotor activity

Structure (SMILES): C[C@@](Cc1ccc(O)c(O)c1)(NN)C(=O)O [carbidopa]
- effect on LPS-induced loss in nigral TH-IR [21]: significantly attenuated
- effect on LPS-induced increase in F4/80-like immunoreactivity (microglia) [22]: significantly attenuated
- effect on MPTP-induced decrease in locomotor activity [23]: appeared to increase
- effect on MA-induced hyperthermia [24]: significantly attenenuated
- effect on mortality induced by LPS [25]: appears to attenuate mortality induced by LPS

— patent US7691874B2, “Neuroprotective properties of dextrorotatory morphinans” (priority 2004, dated 2010)
